# Measurements taken from patent US9834542B2, “LXR modulators” (BRISTOL-MYERS SQUIBB COMPANY, priority 2013, dated 2017).
# Molecular target: T1, LXRβ (Homo sapiens, UniProt P55055)
# T1 construct: Co-transfection expression plasmids, comprising full-length LXRα (pCMX-h LXRα[…] or LXRβ (pCMX-hLXRβ)); expressed in transfected cells; host or cells: CV-1 African Green Monkey Kidney Cells
# T1 sequence (P55055 1-460): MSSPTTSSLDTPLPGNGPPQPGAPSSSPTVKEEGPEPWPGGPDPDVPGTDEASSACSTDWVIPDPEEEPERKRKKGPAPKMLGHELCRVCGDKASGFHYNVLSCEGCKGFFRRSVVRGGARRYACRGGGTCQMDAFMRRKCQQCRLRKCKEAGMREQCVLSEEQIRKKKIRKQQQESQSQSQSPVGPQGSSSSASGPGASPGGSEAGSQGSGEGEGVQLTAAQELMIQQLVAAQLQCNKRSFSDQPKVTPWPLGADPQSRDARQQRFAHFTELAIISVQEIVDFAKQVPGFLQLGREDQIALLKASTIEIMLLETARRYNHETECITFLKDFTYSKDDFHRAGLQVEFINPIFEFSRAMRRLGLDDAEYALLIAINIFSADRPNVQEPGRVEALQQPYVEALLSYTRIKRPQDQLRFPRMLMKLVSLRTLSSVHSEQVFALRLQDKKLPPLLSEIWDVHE
# T1 sequence (P19793 1-462 partner): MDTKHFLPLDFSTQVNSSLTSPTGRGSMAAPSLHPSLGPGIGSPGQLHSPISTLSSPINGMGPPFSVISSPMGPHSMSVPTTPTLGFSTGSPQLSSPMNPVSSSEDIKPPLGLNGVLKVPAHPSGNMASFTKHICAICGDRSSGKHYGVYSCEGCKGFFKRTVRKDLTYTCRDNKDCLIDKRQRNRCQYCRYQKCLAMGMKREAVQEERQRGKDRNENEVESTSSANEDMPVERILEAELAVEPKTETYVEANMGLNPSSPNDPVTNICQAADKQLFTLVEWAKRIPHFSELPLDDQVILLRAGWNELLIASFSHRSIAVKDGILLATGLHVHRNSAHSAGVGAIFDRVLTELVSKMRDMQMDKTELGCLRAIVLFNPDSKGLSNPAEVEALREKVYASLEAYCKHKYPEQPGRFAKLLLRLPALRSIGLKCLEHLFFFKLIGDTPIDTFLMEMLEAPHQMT
# Experiment: Co-transfection assay (LXRE luciferase reporter), LXRβ
# Format: cell-based
# Parameters: % Efficacy: concentration or dose not given beside the values
# Conditions: for EC50: CV-1 cells transfected with pCMX-hLXRβ and LXREx1-Tk-Luciferase, 20 hours incubation; for Emax: read-out: % Efficacy
# Summary of the method: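 CV-1 cells transiently co-transfected with full-length human LXRβ expression plasmid, LXREx1-Tk-luciferase reporter and β-galactosidase control, then exposed to compound for 20 h at 37 °C. Luciferase luminescence read; EC50 from 11-point, ½-log dose–response fit, efficacy relative to high-control agonist maximum.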
# [1] = LXRβ co-transfection, relative to high control 1-(2,4-difluorobenzyl)-2-oxo-6-(4-phenoxyphenyl)-4-(trifluoromethyl)-1,2-dihydropyridine-3-carbonitrile
SMILES,EC50 [nM],% Efficacy [1] [%],Emax [1] [%]
"Cc1nc(-c2cc(-c3cccc(S(C)(=O)=O)c3)ccc2-n2cc(C(C)O)nc2C)c(-c2ccc3c(c2)OC(F)(F)O3)o1 (single isomer, unassigned) [Example 514, 1-(1-(3-(5-(2,2-difluorobenzo[d][1,3]dioxol-5-yl)-2-methyloxazol-4-yl)-3′-(methylsulfonyl)-[1,1′-biphenyl]-4-yl)-2-methyl-1H-imidazol-4-yl)ethanol]",3000,77,–
Cc1nc(-c2cc(-c3cccc(S(=O)(=O)C4CC4)c3)ccc2-n2cc(C(F)(F)F)nc2C)c(-c2ccc3c(c2)OC(F)(F)O3)o1 [Example 416],30,–,76
"Cc1nc(-c2ccc3c(c2)OC(F)(F)O3)c(-c2cc(-c3cccc(S(C)(=O)=O)c3)ccc2-n2cc(C(F)(F)F)nc2C)o1 [Example 615, 4-(2,2-difluorobenzo[d][1,3]dioxol-5-yl)-2-methyl-5-(4-(2-methyl-4-(trifluoromethyl)-1H-imidazol-1-yl)-3′-(methylsulfonyl)-[1,1′-biphenyl]-3-yl)oxazol]",31,–,96
"CCC(F)(F)c1cn(-c2ccc(-c3cccc(S(C)(=O)=O)c3)cc2-n2nncc2-c2ccc(OC(F)(F)F)cc2)c(C)n1 [Example 184, 1-{4-[4-(1,1-difluoropropyl)-2-methyl-1H-imidazol-1-yl]-3′-(methylsulfonyl)biphenyl-3-yl}-5-{4-[(trifluoromethyl)oxy]phenyl}-1H-1,2,3-triazole]",337,–,86
"Cc1nc(C(F)(F)F)cn1-c1ccc(-c2cc(F)c(CO)c(S(C)(=O)=O)c2)cc1-c1nc(C(C)(C)CO)oc1-c1ccc(OC(F)(F)F)cc1 [Example 528, 2-(4-(3′-fluoro-4′-(hydroxymethyl)-4-(2-methyl-4-(trifluoromethyl)-1H-imidazol-1-yl)-5′-(meththsulfonyl)-[1,1′-biphenyl]-3-yl)-5-(4-(trifluoromethoxy)phenyl)oxazol-2-yl)-2-methylpropan-1-ol]",133,–,20
Cc1nc(C(F)(F)F)cn1-c1ccc(-c2cc(F)c(CO)c(S(C)(=O)=O)c2)cc1-c1nc(C2CC2)oc1-c1ccc2c(c1)OC(F)(F)O2 [Example 483],40,–,66
"CS(=O)(=O)c1cccc(-c2ccc(-n3cc(C(F)(F)F)nc3C(F)F)c(-n3nncc3-c3ccc(OC(F)(F)F)cc3)c2)c1 [Example 226, 1-(4-(2-(difluoromethyl)-4-(trifluoromethyl)-1H-imidazol-1-yl)-3′-(methylsulfonyl)-[1,1′-biphenyl]-3-yl)-5-(4-(trifluoromethoxy)phenyl)-1H-1,2,3-triazole]",677,–,92
"Cc1nc(-c2cc(-c3cc(F)c(CO)c(S(C)(=O)=O)c3)ccc2-n2cc(C(F)(F)F)nc2C)c(-c2ccc(OC(F)F)nc2)o1 [Example 385, (3′-(5-(6-(difluoromethoxy)pyridin-3-yl)-2-methyloxazol-4-yl)-3-fluoro-4′-(2-methyl-4-(trifluoromethyl)-1H-imidazol-1-yl)-5-(methylsulfonyl)biphenyl-4-yl)methanol]",15,–,79
"Cc1nc(-c2cc(-c3cccc(S(C)(=O)=O)c3)ccc2-n2cc(C(F)(F)F)nc2C)c(-c2cccnc2C)o1 [Example 394, 2-methyl-4-(4-(2-methyl-4-(trifluoromethyl)-1H-imidazol-1-yl)-3′-(methylsulfonyl)biphenyl-3-yl)-5-(2-methylpyridin-3-yl)oxazole]",615,–,60
"CCC(F)(F)c1cn(-c2ccc(-c3cccc(S(=O)(=O)N(C)C)c3)cc2-n2nncc2-c2ccc(OC(F)(F)F)cc2)c(C)n1 [Example 182, 4′-[4-(1,1-difluoropropyl)-2-methyl-1H-imidazol-1-yl]-N,N-dimethyl-3′-(5-{4-[(trifluoromethyl)oxy]phenyl}-1H-1,2,3-triazol-1-yl)biphenyl-3-sulfonamide]",494,–,78

# The remaining compounds from weak to strong by EC50, led by results:
EC50 [nM],% Efficacy [1] [%],Emax [1] [%],SMILES
3090,–,60,"Cc1nc(C(F)F)cn1-c1ccc(-c2cccc(S(C)(=O)=O)c2)cc1-n1nncc1-c1ccccc1 [Example 171, 1-{4-[4-(difluoromethyl)-2-methyl-1H-imidazol-1-yl]-3′-(methylsulfonyl)biphenyl-3-yl}-5-phenyl-1H-1,2,3-triazole]"
1640,–,93,"Cc1nc(C(F)F)cn1-c1ccc(-c2cccc(C(C)(C)C(N)=O)c2)cc1-n1nncc1-c1ccc(OC(F)(F)F)cc1 [Example 156, 2-{4′-[4-(difluoromethyl)-2-methyl-1H-imidazol-1-yl]-3′-(5-{4-[(trifluoromethyl)oxy]phenyl}-1H-1,2,3-triazol-1-yl)biphenyl-3-yl}-2-methylpropanamide]"
1270,–,95,"Cc1nc(C(F)(F)F)cn1-c1ccc(-c2cccc(S(N)(=O)=O)c2)cc1-n1nncc1-c1ccc(OC(F)(F)F)cc1 [Example 44, 4′-[2-methyl-4-(trifluoromethyl)-1H-imidazol-1-yl]-3′-(5-{4-[(trifluoromethyl)oxy]phenyl}-1H-1,2,3-triazol-1-yl)biphenyl-3-sulfonamide]"
572,–,44,"Cc1nc(C(F)(F)F)cn1-c1ccc(-c2cccc(S(C)(=O)=O)c2)cc1-c1nc(C2CC2)cn1-c1ccc(Cl)cc1 [Example 646, 1-(4-chlorophenyl)-4-cyclopropyl-2-(4-(2-methyl-4-(trifluoromethyl)-1H-imidazol-1-yl)-3′-(methylsulfonyl)-[1,1′-biphenyl]-3-yl)-1H-imidazole]"
394,–,78,"Cc1nc(C(F)(F)F)cn1-c1c(F)cc(-c2ccc(CO)c(S(C)(=O)=O)c2)cc1-n1nncc1-c1ccc(Cl)cc1 [Example 210, {3′-[5-(4-chlorophenyl)-1H-1,2,3-triazol-1-yl]-5′-fluoro-3-(methylsulfonyl)-4′-[2-methyl-4-(trifluoromethyl)-1H-imidazol-1-yl]biphenyl-4-yl}methanol]"
332,–,55,"Cc1nc(-c2cc(-c3cccc(S(C)(=O)=O)c3)ccc2-n2cc(C(F)(F)F)nc2C)c(-c2ccc(OC3CCCCC3)nc2)o1 [Example 408, 5-(6-(cyclohexyloxy)pyridin-3-yl)-2-methyl-4-(4-(2-methyl-4-(trifluoromethyl)-1H-imidazol-1-yl)-3′-(methylsulfonyl)biphenyl-3-yl)oxazole]"
233,–,73,"Cc1nc(-c2cc(-c3cccc([S+](C)[O-])c3)ccc2-n2cc(C(F)(F)F)nc2C)c(-c2ccc(OC(F)(F)F)cc2)o1 (stereo not shown) [Example 533, 2-methyl-4-(4-(2-methyl-4-(trifluoromethyl)-1H-imidazol-1-yl)-3′-(methylsulfinyl)-[1,1′-biphenyl]-3-yl)-5-(4-(trifluoromethoxy)phenyl)oxazole]"
47,–,69,"Cc1cc(-c2cc(-c3cccc(S(C)(=O)=O)c3)ccc2-n2cc(C(F)(F)F)nc2C)n(-c2ccc(OC(F)(F)F)cc2)n1 [Example 291, 3-methyl-5-{3′-(methylsulfonyl)-4-[2-methyl-4-(trifluoromethyl)-1H-imidazol-1-yl]biphenyl-3-yl}-1-{4-[(trifluoromethyl)oxy]phenyl}-1H-pyrazole]"
37,–,38,"Cc1nc(-c2cc(-c3cc(F)c(CO)c(S(C)(=O)=O)c3)ccc2-n2cc(C(F)(F)F)nc2C)c(-c2ccc(F)cc2F)o1 [Example 454, (3′-(5-(2,4-difluorophenyl)-2-methyloxazol-4-yl)-3-fluoro-4′-(2-methyl-4-(trifluoromethyl)-1H-imidazol-1-yl)-5-(methylsulfonyl)biphenyl-4-yl)methanol]"
28,–,100,"Cc1cc(-c2cc(-c3cccc(S(C)(=O)=O)c3)ccc2-n2cc(C(F)(F)F)nc2C)n(-c2ccc3c(c2)OC(F)(F)O3)n1 [Example 304, 1-(2,2-difluorobenzo[d][1,3]dioxol-5-yl)-3-methyl-5-(4-(2-methyl-4-(trifluoromethyl)-1H-imidazol-1-yl)-3′-(methylsulfonyl)-[1,1′-biphenyl]-3-yl)-1H-pyrazole]"
